Assay results as given in patent US20020102533A1, “Hepatitis C protease exosite for inhibit or design” (priority 2000, published 2002).
Where a SMILES comes first, the peptide text is derived from it. Where no end group is shown, it is not given here. [ ]: non-standard residue; d: D form. The star is where a group is joined. Dip = N[C@H](C(=O)O)C(c1ccccc1)c1ccccc1; X1 = C=CCC(N*)B1OC2CC3CC(C3(C)C)C2(C)O1; Cha = N[C@@H](CC1CCCCC1)C(=O)O; AlgCF2CF3 = not defined here; Abu = CC[C@H](N)C(=O)O

Key:
HCV protease [1] = biological target: HCV protease (Hepatitis C virus genotype 1b, UniProt P26663); settings: corresponding peptides as substrates; 50 mM Hepes pH 7.5, 1% CHAPS, 15% glycerol, NS4a cofactor peptide 80 μM; read-out: Ki; cited from earlier work
[2] = biological target: T1, HCV NS3 protease, genotype 1a (Hepatitis C virus genotype 1a, UniProt P26664); test: biochemical; format: biochemical; settings: for (S = P6-P3′) Inhibition(+) / Activation (−): substrate A
T1 construct: NS3 protease catalytic domain (amino acids 1 to 192); MGAQH expression leader (5 aa), or alternatively the 15 aa His tag […]; made in house; host or cells: E. coli BL21 (DE3)
Method: (§1) Endpoint HPLC based HCV protease assay: HCV protease (5 nM) was incubated in 50 mM Tris pH 7.5, 0.1% maltoside, 5 mM DTT and appropriate amounts of glycerol, NS4A peptide, and substrate. Routine assays were 100 μl in volume containing 15% or 50% glycerol, 5.0 μM NS4A peptide and 5.0 μM substrate. Reactions were run at room temperature (˜22° C.) and quenched by the addition of 4 μl of 10% TFA before 10% of the substrate was consumed. Incubation times were 20 minutes for the ester substrate (Peptide Substrate A) and 80 minutes for the P6-P7′ amide substrate (Peptide Substrate B). […] Incubation times were 90 min. Samples, 50 μl, were injected onto an Hewlett Packard 1090 Liquid Chromatograph containing a Dynamax-60A C18 column. The column was eluted with a linear gradient from 10% acetonitrile to 45% acetonitrile in water. All solvents contained 0.1% TFA. A flow rate of 1 ml/min was used. […] The product peaks were detected by fluorescence excitation at 350 nm and emission at 500 nm.
Continuous fluorescence-based HCV protease assay: This asay was a modified version of method of Taliani (Taliani, M.; et al. Anal. Biochem. 240, 60-67, 1996) using Substrate A (Ac-D-E-D(EDANS)-E-E-Abuψ[COO]-A-S-K(DABCYL)—NH2). Assays were run in a 96-well microtiter plates using a Perkin Elmer Luminescence Spectrometer LS50B exciting at 350 nm (10 nm slit) and emitting at 500 nm (10 nm slit). In a typical assay the protease (1-4 nM) was incubated with 10 μM NS4a peptide in 50 mM Tris pH 7.0, 5.0 mM DTT, 50% glycerol, and […] for 15 min. Catalysis was initiated by the addition of Substrate A (final concentration 5.0 μM). Assays were also run under conditions where 15% glycerol, 0.1% Maltoside were substituted for 50% glycerol and 5% CHAPS. Enzymatic activity was monitored by measuring the increase in fluorescence with time using excitation wavelength of 350 nm and an emission wavelength of 500 nm. Both slit widths were 10 nm. Inhibition constants were determined from a nonlinear least squares fit of the data to the equation Vi/Vo=1/(1+[I]/Kiapp). Where Vi is the velocity measured in the presence of inhibitor (inhibitors were introduced with the NS4a peptide) and Vo is the velocity of controls. The thermodynamic Ki was determined from Kiapparent via the relationship for competitive kinetics: Ki=Kiapp/(1+[S]/Km) where [S] is the substrate concentration.
(§2) Footnote a for Table 1 references the assay condiditions: 1) Substrate A=P6-P3′, HCV protease (4.0 nM) was incubated with various concentrations of truncated analogs of Q9692 in 50 mM Tris buffer, pH 7.0, 15% glycerol, 0.1% maltoside, 5 mM DTT and 10 μM NS4A peptide in a 96-well microtiter plate at room temperature. After 15 minutes catalysis was initiated by the addition of Ac-D-E-D(EDANS)-E-E-Abuψ[COO]-A-S-K(DABCYL)—NH2 (final concentration 5.0 μM in a total reaction volume of 200 μl). Enzymatic activity was monitored by measuring the increase in fluorescence with time on a Perkin Elmer LS50B luminescence spectrometer (excitation 350 nm, emission 500 nm, both slits 10 nm). […] Assays were 100 μl in volume, reactions were run at room temperature (˜22 C) for 80 minutes (<10% of the substrate was consumed). The addition of 4 μl of 10% TFA quenched the reactions. Quantitation of hydrolysis products was determined by measuring fluorescent peak areas following HPLC. Products were detected by excitation at 350 nm and measuring emission at 500 nm. Aliquots (50 μl) of quenched enzymatic reactions were injected on an Hewlett Packard 1090 HPLC equipped with a ¼ inch Dynamex 60A C18 column. A linear gradient from 10% acetonitrile:H2O to 45% acetonitrile:H2O was run over a period of 15 min at a flow rate of 1.0 ml/min. All solvents contained 0.1% TFA.

[3] = biological target: T1, HCV NS3 protease, genotype 1a; format: biochemical; settings: substrate B
Method: as §1, §2
Comparison of the effects of Q9692 on the hydrolysis of a P6-P3′ ester substrate (FIG. 2A) and a P6-P7′ substrate (FIG. 2B) and P6-P3′ amide substrate (FIG. 2C) were determined. For substrates A and B1 Concentrations of Q9692 are 0 (circles), 1 μM (squares), 2 μM (diamonds) and 4 μM (triangles). Assay conditions: HCV protease (5 nM) was incubated in 50 mM Tris buffer at pH 7.0, 15% glycerol, 0.1% maltoside, 5 mM DTT, 10 μM NS4A peptide, and specified concentration of substrate. Assays were 100 μl in volume and reactions were run at room temperature (22 C) and quenched by the addition of 4 μl of 10% TFA before 10% of the substrate was consumed. Incubation times were 20 minutes for the ester substrate and 80 minutes for the amide substrate. Hydrolysis products were quantitated by measuring fluorescent peak areas following HPLC and detection by excitation at 350 nm and measuring emission at 500 nm. Aliquots (50 μl) of quenched enzymatic reactions were injected on an Hewlett Packard 1090 HPLC equipped with a ¼ inch Dynamex 60A C18 column.

HCV protease [4] = settings: cited from earlier work
HCV protease (NS3) = biological target: T2, HCV protease (NS3) (Hepatitis C virus genotype 1a, UniProt P26664); format: binding; settings: added to NS3 alone; excitation 280 nm
T2 construct: NS3 protease catalytic domain (amino acids 1 to 192); MGAQH expression leader (5 aa), or alternatively the 15 aa His tag MRGSHHHHHHMGAQH; made in house; host or cells: E. coli BL21 (DE3)
Method: Intrinsic fluorescence studies: Assays were conducted in 0.5 ml fluorescent cuvettes (0.4 ml total volume). […] Fluorescence spectra were obtained by exiting at 280 nm (10 nm slit) and scanning the emission profile from 300 to 400 nm (10 nm slit) at 1 nm s^−1.
Fluorescence spectrum of HCV protease (0.45 μM) in 50 mM Tris buffer, pH 7.0, containing 15% glycerol, and 0.10% maltoside were measured over a range of 300-400 nm using an excitation wavelength of 280 nm. Both excitation and emission slit widths were 10 nm and the scan rate was 1.0 nm sec^−1.

Compound	Kd [2]	(S = P6-P3′) Inhibition(+) / Activation (−) [2]	(S = P6-P7′) Inhibition (+) / Activation (−) [3]	other results
Ac-EDVW[Abu]C-OH				Ki (HCV protease [1]): 1.4 µM
CC(=O)N[C@@H](CC(=O)O)C(=O)N[C@@H](CCC(=O)O)C(=O)N[C@H](C(=O)N[C@@H](CCC(=O)O)C(=O)N[C@@H](CC1CCCCC1)C(N)=O)C(c1ccccc1)c1ccccc1 [Q228, Ac-Asp-Glu-Dpa-Glu-Cha-NH2] (Ac-DE[Dip]E[Cha]-NH2)	25 µM	−	+	
CC(=O)N[C@@H](CCC(=O)O)C(=O)N[C@H](C(=O)N[C@@H](CCC(=O)O)C(=O)N[C@@H](CC1CCCCC1)C(N)=O)C(c1ccccc1)c1ccccc1 [Q240, Ac-Glu-Dpa-Glu-Cha-NH2] (Ac-E[Dip]E[Cha]-NH2)	80 µM	−	−	
CC(=O)N[C@H](C(=O)N[C@@H](CCC(=O)O)C(=O)N[C@@H](CC1CCCCC1)C(N)=O)C(c1ccccc1)c1ccccc1 [Q236, Ac-Dpa-Glu-Cha-NH2] (Ac-[Dip]-Glu-[Cha]-NH2)	66 µM	−	−	
CC(=O)N[C@@H](CC(=O)O)C(=O)N[C@@H](CCC(=O)O)C(=O)N[C@H](C(=O)N[C@@H](CCC(=O)O)C(N)=O)C(c1ccccc1)c1ccccc1 [Q229, Ac-Asp-Glu-Dpa-Glu-NH2] (Ac-DE[Dip]E-NH2)	240 µM	+	+	
Ac-Asp-(D)Glu-Chg-Val-X-Nva—OH				Ki (HCV protease [4]): 0.028 µM
DEMEEC [Ac-DEMEEC—OH]				Ki (HCV protease [1]): 0.6 µM
C=CCC(NC(=O)[C@H](CC1CCCCC1)NC(=O)[C@H](CCC(=O)O)NC(=O)[C@@H](NC(=O)[C@H](CCC(=O)O)NC(=O)[C@H](CC(=O)O)NC(C)=O)C(c1ccccc1)c1ccccc1)B1OC2CC3CC(C3(C)C)C2(C)O1 (stereo partly drawn) [Q9716, Ac-Asp-Glu-Dpa-Glu-Cha-boroAlg—C10H16] (Ac-DE[Dip]E[Cha]-X1)				Ki [2]: ~0.005 µM
CC(=O)N[C@@H](CCC(=O)O)C(=O)N[C@H](C(=O)N[C@@H](CCC(=O)O)C(=O)N[C@@H](CC1CCCCC1)C(=O)N[C@@H](CS)C(=O)O)C(c1ccccc1)c1ccccc1 [Q297, Ac-Glu-Dpa-Glu-Cha-Cys-OH] (Ac-E[Dip]E[Cha]C-OH)	40 µM	−	+	
DCSTPC [Ac-DCSTPC—OH]				Ki (HCV protease [1]): 180 µM
Asp-Glu-Val-Val-Pro-AlgCF2CF3 (DEVVP-AlgCF2CF3; reading uncertain; also: printed as Asp-Glu-Val-Val-Pro-AlgCF2CF3) [Q9714]				Dixon plots of 1/V versus Q9717 concentration ([2]; 5 μM substrate spanning P6-P3′): parallel lines
CC(=O)N[C@H](C(=O)N[C@@H](CCC(=O)O)C(=O)N[C@@H](CC1CCCCC1)C(=O)N[C@@H](CS)C(=O)O)C(c1ccccc1)c1ccccc1 [Q296, Ac-Dpa-Glu-Cha-Cys-OH] (Ac-[Dip]E[Cha]C-OH)	1.5 µM	−	−	
CC(=O)N[C@@H](CC(=O)O)C(=O)N[C@@H](CCC(=O)O)C(=O)N[C@H](C(N)=O)C(c1ccccc1)c1ccccc1 [Q230, Ac-Asp-Glu-Dpa-NH2] (Ac-Asp-Glu-[Dip]-NH2)	400 µM	+	+	
KKGSVVIVGRIVLSGKPAIIPKK [NS4a]				increase in intrinsic fluorescence of the protease (NS3) (HCV protease (NS3)): 25%
CC(=O)N[C@@H](CCC(=O)O)C(=O)N[C@@H](CC1CCCCC1)C(=O)N[C@@H](CS)C(=O)O [Q295, Ac-Glu-Cha-Cys-OH] (Ac-Glu-[Cha]-Cys-OH)	300 µM	+	+	
